Measurements from patent publication US7745651B2, “Cationic lipids and methods of use” (Protiva Biotherapeutics, Inc., priority 2004, dated 2010).

What was measured:
[1] = Nucleic acid encapsulation in SNALP, RiboGreen fluorescence assay; assay type: physicochemical; conditions: SNALP DSPC:Chol:PEG-C-DMA:Cationic Lipid 20:48:2:30 molar percent, siRNA; mean of 3 experiments, error is standard deviation
Protocol: (§1) SNALP Preparation: SNALP with a lipid composition of DSPC:Chol:PEG-C-DMA:Cationic Lipid (20:48:2:30 molar percent) were prepared using the spontaneous vesicle formation by ethanol dilution method [Jeffs et al., Pharm. Res. In Press (2005)]. The sample's were diafiltered against 100 mL of PBS (20 wash volumes) using a cross flow ultrafiltration cartridge (Amersham Biosciences, Piscataway, N.J.) and sterile filtered through Acrodisc 0.2 μm Posidyne filters (Pall Corp., Ann Arbor, Mich.). The siRNA concentration of final samples was determined using the RiboGreen assay and a siRNA standard curve. Particle size and polydispersity was determined using a Malvern Instruments Zetasizer 3000HSA (Malvern, UK). Nucleic acid encapsulation was determined using a RiboGreen assay, comparing fluorescence in the presence and absence of Triton X-100. RiboGreen fluorescence was measured using a Varian Eclipse Spectrofluorometer (Varian Inc) with λex=500 nm, λem=525 nm.
(§2) This example sets forth the physical properties of the SNALP formulations described herein. SNALP containing the various cationic lipids were prepared as described and encapsulated RNA and particle size assessed (Table 1 below). […] Polydispersity of all formulations was low, indicating a narrow distribution of particle size. RNA encapsulation in the final particles was 84-85% of the total.
(§3) Percentage Encapsulation was determined using the RiboGreen fluorescence assay to measure the amount of encapsulated nucleic acid relative to the total nucleic acid present. Particle diameter and polydispersity was measured using a Malvern Zetasizer. Values are the mean of 3 separate experiments, the error is standard deviation.

[2] = SNALP particle diameter and polydispersity, Malvern Zetasizer; assay type: physicochemical; conditions: SNALP DSPC:Chol:PEG-C-DMA:Cationic Lipid 20:48:2:30 molar percent; mean of 3 experiments, error is standard deviation
Protocol: as §1, §2, §3

[3] = tested on: luciferase expression in Neuro2A-G cells (Neuro2A cells stably transfected to express luciferase); experiment: In vitro transfection: luciferase gene silencing by SNALP encapsulating anti-luciferase siRNA; assay type: cell-based; conditions: for luciferase expression relative to untreated control: after 48 hours
Protocol: In vitro Transfection: Cells were cultured in MEM (Invitrogen) containing 10% fetal bovine serum (FBS) (CanSera) and 0.25 mg/mL G418 (Invitrogen). Neuro2A-G cells (Neuro2A cells stably transfected to express luciferase [R. E. Kingston. in Current Protocols in Molecular Biology, Vol. 2, pp. 9.1.4-9.1.9, John Wiley & Sons, Inc. (1997)]) were plated at a concentration of 4×10^4 cells per well in 24-well plates and grown overnight. Cells were treated with SNALP at doses of 0.0625-1.0 μg/mL nucleic acid (AntiLuc Active or Mismatch Control) and incubated for 48 hours at 37° C. and 5% CO2. Cells were then washed with PBS and lysed with 200 μL 250 mM sodium phosphate containing 0.1% Triton X-100. The luciferase activity for each well was determined using Luciferase Reagent (Promega) and a standard luciferase protein (Roche). The luminescence for each was measured using a Berthold MicroLumatPlus LB96V plate luminometer. The resulting luciferase activity was then normalized for the amount of protein using the Micro BCA assay kit (Pierce). Luciferase knockdown relative to a control was then determined for each system.
This example describes experiments comparing expression of nucleic acids following in vitro transfection of Neuro2A cells with SNALP comprising: (1) DODAC, DODMA, or DLinDMA; (2) PEG-C-DMA; and (3) an siRNA duplex directed against luciferase encapsulated in the SNALP (i.e., siRNA comprising the following sequence: […] (SEQ ID NO:1) and targeting the DNA sequence complementary to: […] (SEQ ID NO:3)). Neuro2A cells were stably transfected with a plasmid encoding luciferase under the control of the CMV promoter (pLO55). The stably transfected cells were then transfected with SNALP comprising: 15, 20, 25, 30, 35, or 40% of DODAC, DODMA, or DLinDMA; 2% PEG-C-DMA, and an siRNA duplex directed against luciferase encapsulated in the SNALP. Luciferase protein expression was measured 48 hours after transfection with SNALP.
The ability of SNALP containing each of the four cationic lipids (i.e., DSDMA, DODMA, DLinDMA, and DLenDMA) to effect gene silencing in stably transfected Neuro2A cells was evaluated. Neuro2A cells stably transfected to express the luciferase were treated with SNALP containing anti-luciferase siRNA for 48 hours. Gene-silencing efficiency was evaluated by comparing the remaining luciferase activity in these cells to that remaining in cells treated with control SNALP containing mismatch siRNA.

[4] = TNS assay, apparent pKa of cationic lipid incorporated in SNALP; conditions: TNS fluorescence, pH varied from 4.5 to 9.5
Protocol: TNS Assay: 20 μM of SNALP lipid and 6 μM of TNS were mixed in a fluorescence cuvette in 2 mL of 20 mM sodium phosphate, 25 mM citrate, 20 mM ammonium acetate and 150 mM NaCl, at a pH that was varied from 4.5 to 9.5. Fluorescence was determined at each pH using a Varian Eclipse Spectrofluorometer (Varian Inc) with settings of λex=322 nm, λem=431 nm. Fluorescence for each system at the various pH was then normalized to the value at pH 4.5. The pKa values are the point at which 50% of the molecules present are charged. By assuming that minimum fluorescence represents zero charge, and maximum fluorescence represents 100% charge, pKa can be estimated by measuring the pH at the point exactly half way between the values of minimum and maximum charge.
TNS is electrostatically attracted to positively charged membranes. Subsequent adsorption to the lipid membrane results in the immediate environment of the TNS becoming more lipophilic, removing the water molecules that otherwise quench TNS fluorescence. Since TNS is more readily absorbed by positively charged membranes, TNS fluorescence is an indicator of positive membrane surface charge. The surface pKa values of each SNALP formulation were determined by varying the local pH in the presence of TNS.

[5] = SNALP with anti-luciferase siRNA

| Compound | % Encapsulation [1] | Diameter (nm) [2] | Polydispersity [2] | luciferase expression relative to untreated control [3, 5] | apparent (surface) pKa of cationic lipid in SNALP [4] | knockdown in gene expression (luciferase) versus control SNALP containing mismatch siRNA ([3]; Neuro2A cells stably expressing luciferase, SNALP with anti-luciferase siRNA, 48 hours) | reduction of luciferase expression compared with SNALP comprising DODAC or DODMA ([3]; SNALP with 30% cationic lipid, 2% PEG-C-DMA, anti-luciferase siRNA, 48 hours after transfection) |
| --- | --- | --- | --- | --- | --- | --- | --- |
| CCCCCCCCCCCCCCCCCC[N+](C)(C)CCCCCCCCCCCCCCCCCC [DODMA, dioctadecyldimethylammonium] | 84 ± 1% | 137 ± 4 nm | 0.12 ± 0.01 | 54% | 7.0 | – | – |
| CCCCC/C=C\C/C=C\CCCCCCCCOCC(CN(C)C)OCCCCCCCC/C=C\C/C=C\CCCCC (centres unmarked) [DLinDMA, 1,2-DiLinoleyloxy-N,N-dimethylaminopropane] | 84 ± 3% | 140 ± 6 nm | 0.11 ± 0.02 | 21% | – | 80% | more effective in reducing luciferase expression |
